According to patent US20190053489A1, “ANTIMICROBIAL COMPOSITION” (NATIONAL UNIVERSITY CORPORATION TOKYO MEDICAL AND DENTAL …, priority 2016, published 2019):

Experiments:
[1] = test system: Pseudomonas aeruginosa PAO 1; assay: Proliferation suppression against pseudomonas aeruginosa PAO 1 in a standard medium (colony count method); format: cell-based; conditions: standard TSB medium; colony count 6 hours later; complex 0.2%, others 0.1%; FIG. 10
From the text: This test employed Pseudomonas aeruginosa NBRC 13275 or PAO 1, and other procedures were the same as those of [Example 5] described earlier.
Note that the results of FIG. 9 are each the average value of the values obtained by carrying out the colony count method three times and that the results of FIG. 10 are each the average value of the values obtained by carrying out the colony count method five times.

MRSA IID 1677 = assay: Proliferation suppression against MRSA in a diluted medium (OD600); format: cell-based, Methicillin-Resistant Staphylococcus Aureus (MRSA); conditions: diluted 1/2.5 LB medium, 37° C., OD 600 nm; complex 0.001%, lysozyme, chitosan and each of mixture 0.0005%; FIG. 1
Description: (§1) This test employed MRSA IID 1677, and this microbe strain was cultured in a normal broth medium at 37° C. for 20 hours. The cultured microbial solution was collected by centrifugation (3000 rpm, 10 minutes), suspended with sterilized water, and then diluted with sterilized water so that the optical density would satisfy OD600=1.0. The resultant was diluted 2000 times (corresponding to 10^6 CFU/ml) to prepare a reaction microbial solution.
Each of the LB test medium samples was added with 100 μl of reaction microbial solution and was shake cultured under the condition of 37° C. for 48 hours. Here, the LB test medium samples were prepared using 10 ml of 1/2.5 LB medium added with
(1) 10 ml of sterilized water, (2) 10 ml of the lysozyme-chitosan complex with a concentration of 0.002% (the concentration after addition was 0.001%), (3) 10 ml of lysozyme alone with a concentration of 0.001% (the concentration after addition was 0.0005%), (4) 10 ml of chitosan alone with a concentration of 0.001% (the concentration after addition was 0.0005%), and (5) 10 ml of the mixture of lysozyme and chitosan with a concentration of 0.001% (the concentration of each after addition was 0.0005%).
(§2) After that, 3 ml was extracted at time intervals (0, 1, and 2 days), and the optical density was measured at an absorption wavelength of 600 nm. […]

[2] = test system: Micrococcus luteus bacteria; assay: Heat resistance evaluation by bacteriolytic test; format: physicochemical; conditions: 80° C. for 2 hours; ΔOD at 10 minutes with vs without heating; complex 5%, lysozyme 2.5% aqueous solution; FIG. 6(D)
Description: This test is a bacteriolytic test using Micrococcus luteus bacteria being lysozyme-sensitive bacteria. Note that the bacteriolytic activity is an activity specific to lysozyme. Lysozyme is a protein relatively stable against heat. However, it is known that this activity generally decreases considerably for lysozyme heated at 80° C. for 30 minutes.
This test employed an aqueous solution of the lysozyme-chitosan complex with a concentration of 5%, an aqueous solution of lysozyme with a concentration of 2.5%, and an aqueous solution of the mixture of lysozyme and chitosan with a concentration of […]. In addition, Micrococcus luteus bacteria manufactured by Wako Pure Chemical Industries, Ltd. were used as the use bacteria.
First, 1 g of Micrococcus luteus bacteria was weighed on the day before the test, added to 100 ml of physiological saline, and stirred overnight at 4° C. […]
In an optical density meter, 2800 μl of the test microbial solution was set to record OD (0-1) immediately before the addition of the sample. […] Since OD increased here, the highest value OD (0-2) was recorded.
Timer measurement was started after the addition of the sample to record OD at the time of 2, 4, 6, 8, and 10 minutes passed. Each test was carried out twice, and the average was calculated.
With OD for (0-2) being OD at the time of the start, Δoptical density (AOD) at each point was calculated. […]

[3] = test system: Pseudomonas aeruginosa NBRC 13275; assay: Proliferation suppression against pseudomonas aeruginosa in a diluted medium (OD600); format: cell-based; conditions: diluted 1/2.5 TSB medium with phosphate buffer pH 7.0; complex 0.01%; FIG. 2
Description: as §1, with “Pseudomonas aeruginosa NBRC 13275,” for “MRSA IID 1677,”
Each of the TSB test medium samples was added with 100 μl of reaction microbial solution and was shake cultured under the condition of 37° C. for 48 hours. Here, the TSB test medium samples were prepared using 10 ml of 1/2.5 TSB medium added with 200 μl of 1 M phosphate buffer (pH 7.0), followed by further addition of […]
as §2

lysozyme-chitosan complex: complex of lysozyme and water-soluble chitosan (molecular weight 14000 Da) bound to each other through the Maillard reaction
proliferation suppression effect against PAO 1 [1]: marked improvement effect compared to lysozyme alone, chitosan alone, and the mixture of lysozyme and chitosan
proliferation suppression effect against MRSA for 48 hours (MRSA IID 1677): marked improvement effect compared to lysozyme alone and the mixture of lysozyme and chitosan
residual activity (bacteriolytic) after heating treatment [2]: 91.9%
proliferation suppression effect against pseudomonas aeruginosa past 24 hours [3]: strong proliferation suppression effect
